Columns and labels:
[1] = system: stimulation of cell elongation, leaf senescence or elicitation of the cereal aleurone α-amylase response; settings: structure-activity statement; cited from earlier work
gai mutants = settings: cited from earlier work
kaurene oxidase reaction = target: T1, kaurene oxidase reaction (Arabidopsis thaliana, UniProt Q93ZB2); settings: cited from earlier work
T1 sequence (Q93ZB2 1-509): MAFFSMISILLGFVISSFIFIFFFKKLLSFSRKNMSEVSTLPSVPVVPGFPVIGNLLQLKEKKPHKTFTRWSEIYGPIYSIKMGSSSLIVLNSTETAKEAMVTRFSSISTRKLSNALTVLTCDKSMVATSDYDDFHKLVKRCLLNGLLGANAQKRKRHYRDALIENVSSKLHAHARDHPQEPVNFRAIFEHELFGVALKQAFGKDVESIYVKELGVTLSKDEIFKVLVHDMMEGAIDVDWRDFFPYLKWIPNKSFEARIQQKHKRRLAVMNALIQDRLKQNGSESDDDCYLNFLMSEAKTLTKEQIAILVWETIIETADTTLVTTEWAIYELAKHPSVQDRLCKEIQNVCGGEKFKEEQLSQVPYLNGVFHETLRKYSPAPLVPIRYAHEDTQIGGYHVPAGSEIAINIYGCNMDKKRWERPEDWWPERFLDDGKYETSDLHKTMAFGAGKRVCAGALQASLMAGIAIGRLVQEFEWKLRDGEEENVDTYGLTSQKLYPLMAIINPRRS

plants = settings: reduces endogenous GA levels; cited from earlier work
gai-t6 mutant = assay: growth on medium containing paclobutrazol; format: in vivo, Arabidopsis thaliana; settings: grown on medium containing paclobutrazol
Source text: The slender mutants of pea and barley are resistant to the dwarfing effects of paclobutrazol^38-42, as is the Arabidopsis constitutive GA-response mutant spy^43,44. Thus, in these mutants stem elongation is at least partially uncoupled from the GA-mediated control characteristic of normal plants. […] Put another way, a GAI null mutant appears to require less endogenous GA to achieve a certain degree of growth than does a normal plant. GA-dependency is not completely abolished by gai-t6 possibly because the products of genes related in sequence to GAI (see above) can substantially, but not completely, compensate for loss of GAI function.

Row | Structure (SMILES) | biological activity of gibberellin [1] | response of gai mutants to GA treatment (gai mutants) | further results
1 | C=C1C[C@]23C[C@@]1(O)CC[C@H]2[C@@]12CC[C@H](O)[C@@](C)(C(=O)O1)[C@H]2[C@@H]3C(=O)O [GA1] | high biological activity | do not respond | 
2 | C=C1C[C@]23C[C@H]1CC[C@H]2[C@@]12C[C@H](O)C[C@@](C)(C(=O)O1)[C@H]2[C@@H]3C(=O)O [GA51] | inactivity |  | 
3 | C=C1C[C@]23C[C@H]1CC[C@H]2[C@@]12C[C@H](O)[C@H](O)[C@@](C)(C(=O)O1)[C@H]2[C@@H]3C(=O)O [GA34] | inactivity |  | 
4 | C=C1C[C@]23C[C@@]1(O)CC[C@H]2[C@@]12C[C@H](O)[C@H](O)[C@@](C)(C(=O)O1)[C@H]2[C@@H]3C(=O)O [GA8] | inactivity |  | 
5 | C=C1C[C@]23C[C@@]1(O)CC[C@H]2[C@@]12C[C@H](O)C[C@@](C)(C(=O)O1)[C@H]2[C@@H]3C(=O)O [GA29] | inactivity |  | 
6 | C=C1C[C@]23C[C@H]1CC[C@H]2[C@@]12CC[C@H](O)[C@@](C)(C(=O)O1)[C@H]2[C@@H]3C(=O)O [GA4] | high biological activity | do not respond | 
7 | C=C1C[C@]23C[C@H]1CC[C@H]2[C@@]12C=C[C@H](O)[C@@](C)(C(=O)O1)[C@H]2[C@@H]3C(=O)O [GA7] | high biological activity |  | 
8 | C=C1C[C@]23C[C@@]1(O)CC[C@H]2[C@@]12C=C[C@H](O)[C@@](C)(C(=O)O1)[C@H]2[C@@H]3C(=O)O [GA3] |  | do not respond | 
9 | CC(C)(C)[C@@H](O)[C@@H](Cc1ccc(Cl)cc1)n1cncn1 (racemic) [Paclobutrazol] |  |  | inhibition of GA biosynthesis (kaurene oxidase reaction): specifically inhibits GA biosynthesis; phenotype of plants exposed (plants): conferring a dwarf phenotype; floral bolt stem length of gai-t6 mutants vs GAI control plants (gai-t6 mutant): longer floral bolt stems than GAI control plants

— patent US6794560B2, “Nucleic acid encoding GAI gene of Arabidopsis thaliana” (Pioneer Hi-Bred International, Inc., priority 1996, dated 2004)
